{"source": "the supplement of paper PMC10307832", "test_in_all_cases": "relative viability (nuclei count vs DMSO), 5 days (fraction); higher = more cells survive", "key": {"[1]": {"test_system": "SK-LU-1", "how_it_was_run": "(§1)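 Each reported value is a median over duplicate plates. It expresses relative viability: treated-well nuclei count divided by vehicle-well nuclei count. Lung cancer cell lines in 1536-well plates were dosed by pin tool a day after seeding, alone with one drug or with a fixed anchor-drug dose plus five library-drug doses (not always all listed) in √10 steps, and nuclei were counted after 5 days.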"}, "[2]": {"test_system": "HCC-78", "how_it_was_run": "as §1"}, "[3]": {"test_system": "SW 1573", "how_it_was_run": "as §1"}, "[4]": {"test_system": "NCI-H1975", "how_it_was_run": "as §1"}, "[5]": {"test_system": "LCLC-103H", "how_it_was_run": "as §1"}, "[6]": {"test_system": "NCI-H23", "how_it_was_run": "as §1"}, "[7]": {"test_system": "NCI-H3122", "how_it_was_run": "as §1"}, "[8]": {"test_system": "LU99A", "how_it_was_run": "as §1"}, "[9]": {"test_system": "RERF-LC-KJ", "how_it_was_run": "as §1"}, "[10]": {"test_system": "LK-2", "how_it_was_run": "as §1"}, "[11]": {"test_system": "NCI-H2085", "how_it_was_run": "as §1"}, "[12]": {"test_system": "ChaGo-K-1", "how_it_was_run": "as §1"}, "[13]": {"test_system": "HCC-366", "how_it_was_run": "as §1"}, "[14]": {"test_system": "SW 900", "how_it_was_run": "as §1"}, "[15]": {"test_system": "NCI-H2405", "how_it_was_run": "as §1"}, "[16]": {"test_system": "NCI-H1666", "how_it_was_run": "as §1"}, "[17]": {"test_system": "HCC-44", "how_it_was_run": "as §1"}, "[18]": {"test_system": "EMC-BAC-2", "how_it_was_run": "as §1"}, "[19]": {"test_system": "NCI-H1563", "how_it_was_run": "as §1"}, "[20]": {"test_system": "EPLC-272H", "how_it_was_run": "as §1"}, "[21]": {"test_system": "LXF-289", "how_it_was_run": "as §1"}, "[22]": {"test_system": "NCI-H2126", "how_it_was_run": "as §1"}, "[23]": {"test_system": "HCC-827", "how_it_was_run": "as §1"}, "[24]": {"test_system": "LOU-NH91", "how_it_was_run": "as §1"}}, "data": [{"smiles": "CC(C)Oc1cc(Nc2nc(N[C@@H](C)c3ccc(F)cn3)ncc2Cl)n[nH]1", "note": "[AZ23] + COc1cccc2cc(-c3nc([C@H]4CC[C@H](C(=O)O)CC4)n4ncnc(N)c34)[nH]c12 [OSI-027] (partner 0.5 µM)", "values": [{"measurement": "relative viability", "setting": "[1]; first compound 0.03162 µM", "value": 0.403}, {"measurement": "relative viability", "setting": "[1]; first compound 0.3162 µM", "value": 0.379}, {"measurement": "relative viability", "setting": "[2]; first compound 0.01 µM", "value": 0.52}, {"measurement": "relative viability", "setting": "[2]; first compound 0.03162 µM", "value": 0.349}, {"measurement": "relative viability", "setting": "[2]; first compound 0.3162 µM", "value": 0.322}, {"measurement": "relative viability", "setting": "[3]; first compound 0.01 µM", "value": 0.925}, {"measurement": "relative viability", "setting": "[3]; first compound 0.03162 µM", "value": 0.7}, {"measurement": "relative viability", "setting": "[3]; first compound 0.3162 µM", "value": 0.649}, {"measurement": "relative viability", "setting": "[4]; first compound 0.01 µM", "value": 0.874}, {"measurement": "relative viability", "setting": "[4]; first compound 0.03162 µM", "value": 0.812}, {"measurement": "relative viability", "setting": "[4]; first compound 0.3162 µM", "value": 0.727}, {"measurement": "relative viability", "setting": "[5]; first compound 0.01 µM", "value": 0.401}, {"measurement": "relative viability", "setting": "[5]; first compound 0.03162 µM", "value": 0.505}, {"measurement": "relative viability", "setting": "[5]; first compound 0.3162 µM", "value": 0.535}, {"measurement": "relative viability", "setting": "[6]; first compound 0.03162 µM", "value": 0.58}, {"measurement": "relative viability", "setting": "[6]; first compound 0.3162 µM", "value": 0.599}, {"measurement": "relative viability", "setting": "[7]; first compound 0.01 µM", "value": 1.12}, {"measurement": "relative viability", "setting": "[7]; first compound 0.03162 µM", "value": 1.12}, {"measurement": "relative viability", "setting": "[7]; first compound 0.3162 µM", "value": 1.12}, {"measurement": "relative viability", "setting": "[8]; first compound 0.01 µM", "value": 0.264}, {"measurement": "relative viability", "setting": "[8]; first compound 0.03162 µM", "value": 0.312}, {"measurement": "relative viability", "setting": "[8]; first compound 0.3162 µM", "value": 0.286}, {"measurement": "relative viability", "setting": "[9]; first compound 0.01 µM", "value": 0.592}, {"measurement": "relative viability", "setting": "[9]; first compound 0.03162 µM", "value": 0.623}, {"measurement": "relative viability", "setting": "[9]; first compound 0.3162 µM", "value": 0.616}, {"measurement": "relative viability", "setting": "[10]; first compound 0.01 µM", "value": 0.176}, {"measurement": "relative viability", "setting": "[10]; first compound 0.03162 µM", "value": 0.198}, {"measurement": "relative viability", "setting": "[10]; first compound 0.3162 µM", "value": 0.183}, {"measurement": "relative viability", "setting": "[11]; first compound 0.01 µM", "value": 0.676}, {"measurement": "relative viability", "setting": "[11]; first compound 0.03162 µM", "value": 0.76}, {"measurement": "relative viability", "setting": "[11]; first compound 0.3162 µM", "value": 0.659}, {"measurement": "relative viability", "setting": "[12]; first compound 0.01 µM", "value": 0.641}, {"measurement": "relative viability", "setting": "[12]; first compound 0.03162 µM", "value": 0.593}, {"measurement": "relative viability", "setting": "[12]; first compound 0.3162 µM", "value": 0.695}, {"measurement": "relative viability", "setting": "[13]; first compound 0.01 µM", "value": 1.06}, {"measurement": "relative viability", "setting": "[13]; first compound 0.03162 µM", "value": 0.872}, {"measurement": "relative viability", "setting": "[13]; first compound 0.3162 µM", "value": 1.05}, {"measurement": "relative viability", "setting": "[14]; first compound 0.01 µM", "value": 0.512}, {"measurement": "relative viability", "setting": "[14]; first compound 0.03162 µM", "value": 0.663}, {"measurement": "relative viability", "setting": "[14]; first compound 0.3162 µM", "value": 0.579}, {"measurement": "relative viability", "setting": "[15]; first compound 0.01 µM", "value": 0.555}, {"measurement": "relative viability", "setting": "[15]; first compound 0.03162 µM", "value": 0.667}, {"measurement": "relative viability", "setting": "[15]; first compound 0.3162 µM", "value": 0.614}, {"measurement": "relative viability", "setting": "[16]; first compound 0.01 µM", "value": 0.847}, {"measurement": "relative viability", "setting": "[16]; first compound 0.03162 µM", "value": 0.849}, {"measurement": "relative viability", "setting": "[16]; first compound 0.3162 µM", "value": 0.823}, {"measurement": "relative viability", "setting": "[17]; first compound 0.01 µM", "value": 0.538}, {"measurement": "relative viability", "setting": "[17]; first compound 0.03162 µM", "value": 0.661}, {"measurement": "relative viability", "setting": "[17]; first compound 0.3162 µM", "value": 0.375}, {"measurement": "relative viability", "setting": "[18]; first compound 0.01 µM", "value": 0.373}, {"measurement": "relative viability", "setting": "[18]; first compound 0.03162 µM", "value": 0.42}, {"measurement": "relative viability", "setting": "[18]; first compound 0.3162 µM", "value": 0.365}, {"measurement": "relative viability", "setting": "[19]; first compound 0.01 µM", "value": 0.768}, {"measurement": "relative viability", "setting": "[19]; first compound 0.03162 µM", "value": 0.775}, {"measurement": "relative viability", "setting": "[19]; first compound 0.3162 µM", "value": 0.775}, {"measurement": "relative viability", "setting": "[20]; first compound 0.01 µM", "value": 0.238}, {"measurement": "relative viability", "setting": "[20]; first compound 0.03162 µM", "value": 0.275}, {"measurement": "relative viability", "setting": "[20]; first compound 0.3162 µM", "value": 0.256}, {"measurement": "relative viability", "setting": "[21]; first compound 0.01 µM", "value": 0.862}, {"measurement": "relative viability", "setting": "[21]; first compound 0.03162 µM", "value": 0.857}, {"measurement": "relative viability", "setting": "[21]; first compound 0.3162 µM", "value": 0.96}, {"measurement": "relative viability", "setting": "[22]; first compound 0.01 µM", "value": 0.692}, {"measurement": "relative viability", "setting": "[22]; first compound 0.03162 µM", "value": 0.735}, {"measurement": "relative viability", "setting": "[22]; first compound 0.3162 µM", "value": 0.756}, {"measurement": "relative viability", "setting": "[23]; first compound 0.01 µM", "value": 0.78}, {"measurement": "relative viability", "setting": "[23]; first compound 0.03162 µM", "value": 0.793}, {"measurement": "relative viability", "setting": "[23]; first compound 0.3162 µM", "value": 0.882}, {"measurement": "relative viability", "setting": "[24]; first compound 0.01 µM", "value": 0.692}, {"measurement": "relative viability", "setting": "[24]; first compound 0.03162 µM", "value": 0.753}, {"measurement": "relative viability", "setting": "[24]; first compound 0.3162 µM", "value": 0.704}]}]}
